Like-named read-outs stand apart in the source and are kept apart here.
How the values were obtained:
[1] = biological target: T1, human recombinant 15-LO-1 (Homo sapiens, UniProt P16050); experiment: Metabolism of substrates by recombinant 15-LO-1, LC-MS/MS; format: biochemical; conditions: 10 µM 1-LG, 5 min, 37 °C
T1 sequence (P16050 1-662): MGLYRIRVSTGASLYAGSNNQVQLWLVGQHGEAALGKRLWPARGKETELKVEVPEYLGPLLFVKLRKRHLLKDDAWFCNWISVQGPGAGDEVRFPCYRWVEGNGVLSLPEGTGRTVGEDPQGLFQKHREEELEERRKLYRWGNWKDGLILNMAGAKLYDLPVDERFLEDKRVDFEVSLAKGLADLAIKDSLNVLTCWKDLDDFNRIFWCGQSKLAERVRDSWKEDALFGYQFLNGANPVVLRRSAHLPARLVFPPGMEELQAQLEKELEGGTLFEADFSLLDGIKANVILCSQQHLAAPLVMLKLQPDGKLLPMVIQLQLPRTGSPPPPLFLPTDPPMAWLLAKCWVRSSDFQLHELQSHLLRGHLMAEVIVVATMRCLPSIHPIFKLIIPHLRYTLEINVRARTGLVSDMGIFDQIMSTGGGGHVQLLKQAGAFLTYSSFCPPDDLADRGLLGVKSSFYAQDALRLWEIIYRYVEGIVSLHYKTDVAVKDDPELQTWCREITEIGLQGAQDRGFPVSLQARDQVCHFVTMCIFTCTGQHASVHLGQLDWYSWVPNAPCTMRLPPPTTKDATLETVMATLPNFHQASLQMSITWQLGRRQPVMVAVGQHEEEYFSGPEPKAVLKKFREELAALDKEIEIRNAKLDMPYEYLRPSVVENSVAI
Description: (§1) Recombinant human 15-LO-1 and 15-LO-2 enzymes were added to HEPES 25 mM + 0.01% Triton (14 μg/mL for 15-LO-1, 56 μg/mL for 15-LO-2). A total of 10 μM of the fatty acids were added to the buffer for 5 min (15-LO-1) or 15 min (15-LO-2), at 37 °C. The final volume of the reaction mix was 100 µL. After the incubation, 50 µL of NaBH4 1M was added to the reaction, for 5 min at 37 °C. The reactions were stopped by adding 0.5 mL of cold (−20 °C) methanol +0.01% acetic acid and kept at −30 °C until further processing.
(§2) Figure 3 Metabolism of 1-LG, LA and LEA by human recombinant 15-LO-1 and 15-LO-2. Human recombinant 15-LO-1 (A–D) or 15-LO-2 (E–H) were incubated at 37 °C in HEPES 25 mM containing 0.01% triton. A total of 10 μM of LA (A,D,E,H); 1-LG (B,D,F,H) or LEA (D,H) were added for 5 min (15-LO-1) or 15 min (15-LO-2). NaBH4 was then added for 5 min and incubations were stopped by the addition of 0.5 mL of cold (−20 °C) MeOH containing 0.01% acetic acid and the internal standards. Samples then were processed for LC-MS/MS analyses as described in methods. Results are the mean (±SEM) of 3 independent experiments.

[2] = biological target: human recombinant CB2 receptor (Homo sapiens, UniProt P34972); experiment: CB2 receptor binding assay; conditions: mean ± SD; for CB2 Receptor Max Tested (% Displacement): 10 µM
Description: (§3) The analysis of CB1 and CB2 receptor binding was performed exactly as described in [21].

human eosinophils [3] = experiment: Biosynthesis of 15-LO metabolites by human eosinophils; conditions: for Delay before metabolism into 15-lipoxygenase counterpart / Time of maximal levels of 15-lipoxygenase metabolite: 3 µM substrate; for Time of maximal levels of 15-lipoxygenase metabolite: longest time point studied; for Times more metabolite in eosinophils than in neutrophils: same donors, combination of LA, 1-LG and LEA at 3 µM each, 5 min
human neutrophils [4] = experiment: Biosynthesis of 15-LO metabolites by human neutrophils
[5] = biological target: T2, human recombinant 15-LO-2 (Homo sapiens, UniProt O15296); experiment: Metabolism of substrates by recombinant 15-LO-2, LC-MS/MS; format: biochemical; conditions: 10 µM 1-LG, 15 min, 37 °C
T2 sequence (O15296 1-676): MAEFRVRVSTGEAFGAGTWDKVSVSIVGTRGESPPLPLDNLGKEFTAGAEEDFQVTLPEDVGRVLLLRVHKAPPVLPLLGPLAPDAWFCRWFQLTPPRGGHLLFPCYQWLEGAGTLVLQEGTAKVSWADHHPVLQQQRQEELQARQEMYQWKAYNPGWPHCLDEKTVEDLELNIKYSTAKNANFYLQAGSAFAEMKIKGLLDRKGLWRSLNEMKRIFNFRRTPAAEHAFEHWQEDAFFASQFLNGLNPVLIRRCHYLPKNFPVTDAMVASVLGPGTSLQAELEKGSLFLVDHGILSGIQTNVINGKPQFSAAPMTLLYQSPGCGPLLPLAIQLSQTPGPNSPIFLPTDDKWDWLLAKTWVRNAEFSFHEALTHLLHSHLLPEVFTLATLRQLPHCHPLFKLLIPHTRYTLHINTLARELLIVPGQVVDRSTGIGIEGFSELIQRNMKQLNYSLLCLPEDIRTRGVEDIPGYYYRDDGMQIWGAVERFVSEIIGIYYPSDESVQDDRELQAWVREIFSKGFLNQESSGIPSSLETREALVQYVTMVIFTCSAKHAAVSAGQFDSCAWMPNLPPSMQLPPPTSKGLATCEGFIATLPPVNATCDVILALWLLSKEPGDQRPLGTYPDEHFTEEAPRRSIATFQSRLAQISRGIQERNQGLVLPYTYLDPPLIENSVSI
Description: as §1, §2

human recombinant TRPV1 = biological target: T3, human recombinant TRPV1 (Homo sapiens, UniProt Q8NER1); experiment: TRPV1-mediated intracellular calcium elevation; format: cell-based; conditions: mean ± SD; for IC50: assayed using 100 nM capsaicin, read-out: Desensibilization (IC50); for Emax: read-out: Efficacy (% Max Response)
T3 construct: expressed in transfected cells
From the text: (§4) These assays we preformed exactly as described in [21].

[6] = biological target: human recombinant CB1 receptor (Homo sapiens, UniProt P21554); experiment: CB1 receptor binding assay; conditions: mean ± SD; for CB1 Receptor Max Tested (% Displacement): 10 µM
Description: as §3

PPAR-α = biological target: T4, PPAR-α (Homo sapiens, UniProt Q07869); experiment: PPAR-α functional (transcriptional) activity assay kit; format: cell-based; conditions: 30 µM, overnight
T4 construct: purchased
T4 sequence (Q07869 1-468): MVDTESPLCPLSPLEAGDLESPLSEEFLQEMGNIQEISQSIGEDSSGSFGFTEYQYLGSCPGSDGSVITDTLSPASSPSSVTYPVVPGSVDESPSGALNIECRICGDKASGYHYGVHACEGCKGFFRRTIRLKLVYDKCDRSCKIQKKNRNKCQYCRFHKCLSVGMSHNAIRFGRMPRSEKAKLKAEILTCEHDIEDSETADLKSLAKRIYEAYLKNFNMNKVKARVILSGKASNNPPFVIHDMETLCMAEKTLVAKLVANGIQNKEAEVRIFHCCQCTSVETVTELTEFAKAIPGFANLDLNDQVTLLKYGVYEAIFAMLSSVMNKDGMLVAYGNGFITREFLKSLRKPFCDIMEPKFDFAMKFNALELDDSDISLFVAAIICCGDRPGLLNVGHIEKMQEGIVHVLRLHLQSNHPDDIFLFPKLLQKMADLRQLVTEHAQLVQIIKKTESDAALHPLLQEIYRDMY
Description: as §4
(§5) Figure 10 Impact of 13-HODE and 13-HODE-G on PPAR activity. Cells were incubated with 30 µM 13-HODE, 13-HODE-G, or OEA overnight and PPAR activity was measured using the PPAR assay kits according to the manufacturers’ instructions. Rosiglitazone (10 µM) and GW 590735 (100 nM) were utilized as positive controls for the (A) PPAR-γ and (B) PPAR-α assays, respectively. Data represent the mean (± SEM) of three (PPAR-γ) or five (PPAR-α) experiments, each performed in triplicates. p values were obtained by performing a 2-way ANOVA with a Sidak multiple comparison tests. **** p < 0.0001, *** p < 0.001. ns: p > 0.05.

[7] = biological target: T1, human recombinant 15-LO-1; parameters: method as in PMID 33915294; conditions: previous publication; cited from earlier work
[8] = biological target: T2, human recombinant 15-LO-2; parameters: method as in PMID 33915294; conditions: previous publication; cited from earlier work
human neutrophils [9] = experiment: Hydrolysis/stability of added 13-HODE-EA in neutrophil suspensions; format: in vitro ADME; conditions: neutrophils 5 × 10^6 cells/mL
human eosinophils [10] = experiment: Hydrolysis/stability of added 13-HODE-EA in eosinophil suspensions; format: in vitro ADME; conditions: eosinophils 10^6 cells/mL
[11] = Detection of 13-HODE-G in human samples by LC-MS/MS; conditions: mean ± SEM, n = 5
PPAR-γ = biological target: T5, PPAR-γ (Homo sapiens, UniProt P37231); experiment: PPAR-γ functional (transcriptional) activity assay kit; format: cell-based; conditions: 30 µM, overnight
T5 construct: purchased
T5 sequence (P37231 1-505): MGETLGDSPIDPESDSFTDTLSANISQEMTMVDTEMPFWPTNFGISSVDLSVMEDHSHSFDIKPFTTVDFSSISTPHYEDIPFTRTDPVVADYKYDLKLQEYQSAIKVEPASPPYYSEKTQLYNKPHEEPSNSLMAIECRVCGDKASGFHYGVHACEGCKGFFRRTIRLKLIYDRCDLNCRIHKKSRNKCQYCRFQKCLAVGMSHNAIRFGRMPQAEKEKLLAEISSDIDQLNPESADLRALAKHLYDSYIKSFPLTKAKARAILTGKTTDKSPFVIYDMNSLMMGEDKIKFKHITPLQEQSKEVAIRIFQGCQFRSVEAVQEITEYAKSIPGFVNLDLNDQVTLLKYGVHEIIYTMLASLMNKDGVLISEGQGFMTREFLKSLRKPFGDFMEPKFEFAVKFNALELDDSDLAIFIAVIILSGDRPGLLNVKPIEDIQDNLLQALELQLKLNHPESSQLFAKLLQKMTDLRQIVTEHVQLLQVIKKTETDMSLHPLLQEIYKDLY
Description: as §4, §5

human neutrophils [12] = experiment: Inhibition of 13-HODE-G and 13-HODE-EA biosynthesis by 15-LO inhibitors in neutrophils; format: cell-based; conditions: inhibitor 10 µM 5 min, then 3 µM LEA or 1-LG 5 min
From the text: Figure 9 Inhibition of 13-HODE-G and 13-HODE-EA biosynthesis by 15-LO inhibitors in human eosinophils and neutrophils. […] Samples then were processed for LC-MS/MS analyses as described in methods. Results are the mean (±SEM) of 4 independent experiments.

[13] = intracellular calcium elevation

Sequence of human recombinant CB1 receptor (P21554 whole entry): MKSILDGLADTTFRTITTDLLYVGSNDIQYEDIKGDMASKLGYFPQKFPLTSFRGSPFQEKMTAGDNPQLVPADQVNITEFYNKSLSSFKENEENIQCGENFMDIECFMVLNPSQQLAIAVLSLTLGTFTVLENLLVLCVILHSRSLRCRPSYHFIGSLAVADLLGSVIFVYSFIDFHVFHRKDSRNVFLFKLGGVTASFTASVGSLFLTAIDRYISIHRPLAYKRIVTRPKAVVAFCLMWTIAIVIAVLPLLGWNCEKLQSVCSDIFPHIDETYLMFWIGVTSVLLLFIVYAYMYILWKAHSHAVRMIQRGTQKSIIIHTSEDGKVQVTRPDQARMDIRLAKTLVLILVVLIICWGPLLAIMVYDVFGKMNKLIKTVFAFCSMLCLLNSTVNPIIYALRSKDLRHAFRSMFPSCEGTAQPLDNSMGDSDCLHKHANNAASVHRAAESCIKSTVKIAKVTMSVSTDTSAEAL
T3 sequence (Q8NER1 whole entry): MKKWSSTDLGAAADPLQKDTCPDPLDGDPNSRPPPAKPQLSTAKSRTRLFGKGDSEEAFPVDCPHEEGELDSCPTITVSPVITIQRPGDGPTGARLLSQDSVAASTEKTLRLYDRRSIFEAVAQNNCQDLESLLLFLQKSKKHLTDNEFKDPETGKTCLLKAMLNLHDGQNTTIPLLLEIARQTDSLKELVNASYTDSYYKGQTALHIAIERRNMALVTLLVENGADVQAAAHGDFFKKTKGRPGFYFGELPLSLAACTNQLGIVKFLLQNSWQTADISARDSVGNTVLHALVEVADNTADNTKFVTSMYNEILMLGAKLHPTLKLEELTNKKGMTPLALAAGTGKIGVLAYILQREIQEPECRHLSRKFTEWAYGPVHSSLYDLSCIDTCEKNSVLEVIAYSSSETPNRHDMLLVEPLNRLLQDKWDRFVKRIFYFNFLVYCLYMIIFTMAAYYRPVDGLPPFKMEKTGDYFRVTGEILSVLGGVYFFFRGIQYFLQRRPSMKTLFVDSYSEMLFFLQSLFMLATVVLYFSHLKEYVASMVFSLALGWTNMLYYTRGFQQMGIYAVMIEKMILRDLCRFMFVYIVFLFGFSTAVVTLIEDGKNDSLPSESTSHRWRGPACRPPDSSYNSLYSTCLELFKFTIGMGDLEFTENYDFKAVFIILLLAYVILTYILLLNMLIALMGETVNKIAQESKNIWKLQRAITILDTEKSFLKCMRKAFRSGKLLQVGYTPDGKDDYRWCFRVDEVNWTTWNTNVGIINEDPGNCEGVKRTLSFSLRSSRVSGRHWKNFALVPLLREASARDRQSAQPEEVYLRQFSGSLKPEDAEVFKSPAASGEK
Sequence of human recombinant CB2 receptor (P34972 whole entry): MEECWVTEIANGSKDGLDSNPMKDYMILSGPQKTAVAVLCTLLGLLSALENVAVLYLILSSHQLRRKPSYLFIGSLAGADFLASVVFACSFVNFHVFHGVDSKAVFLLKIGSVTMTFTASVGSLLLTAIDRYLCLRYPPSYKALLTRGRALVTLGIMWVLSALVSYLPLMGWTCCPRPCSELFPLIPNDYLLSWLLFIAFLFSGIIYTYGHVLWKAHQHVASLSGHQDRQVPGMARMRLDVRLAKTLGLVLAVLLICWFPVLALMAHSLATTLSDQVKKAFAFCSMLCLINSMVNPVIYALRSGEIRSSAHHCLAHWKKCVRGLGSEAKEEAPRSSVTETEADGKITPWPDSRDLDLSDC

Compound | CB2 Receptor Max Tested (% Displacement) [2] | IC50 [2] [µM] | Ki [2] [µM] | Time of maximal levels of 15-lipoxygenase metabolite (human eosinophils [3]) [min] | IC50 (human recombinant TRPV1) [µM] | Emax (human recombinant TRPV1; [13]) [%] | CB1 Receptor Max Tested (% Displacement) [6] | IC50 [6] [µM] | Ki [6] [µM] | Times more metabolite in eosinophils than in neutrophils (human eosinophils [3]) | further results
CCCCC/C=C\C/C=C\CCCCCCCC(=O)OCC(O)CO (stereo not shown) [1-LG, 1-linoleoyl-glycerol] | 10 µM (28.45 ± 9.4) % | > 10 | > 10 | 15 | 2.7 ± 0.3 | 46.5 ± 0.9 | 10µM (95.8 ± 16.4) % | 2.81 ± 0.85 | 0.31 ± 0.15 | – | Efficacy of the reaction (1-LG to 13-HODE-G) [1]: 23%; Delay before metabolism into 15-lipoxygenase counterpart (human eosinophils [3]): ~ 1 min; Time to biosynthesis of 13-HODE derivatives (human neutrophils [4]; 3 µM substrate): 10 to 30 s; Efficacy of the reaction (1-LG to 13-HODE-G) [5]: 40%; EC50 (human recombinant TRPV1; intracellular calcium elevation, read-out: Potency (EC50)): 0.23 ± 0.02 µM
CCCCC[C@H](O)/C=C/C=C\CCCCCCCC(=O)O [13-HODE, 13(S)-hydroxy-octodecadienoic acid] | 10 µM (38.34 ± 5.4) % | > 10 | > 10 | – | > 50 | < 10 | 10 µM (7.56 ± 2.3) % | > 10 | > 10 | ~ 30 times | Stimulation of PPAR-α transcriptional activity (PPAR-α): robust effect
CCCCC[C@H](O)/C=C/C=C\CCCCCCCC(=O)NCCO [13-HODE-EA, N-13-hydroxy-octodecadienoyl-ethanolamine] | – | – | – | – | – | – | – | – | – | ~ 500 times | 13-HODE-EA/13-HODE ratio [7]: ~ 3.5; 13-HODE-EA/13-HODE ratio [8]: ~ 3; Remaining after 15 min (human neutrophils [9]): 60%; Remaining after 15 min (human eosinophils [10]): 90%
CCCCC[C@H](O)/C=C/C=C\CCCCCCCC(=O)OCC(O)CO (stereo partly shown) [13-HODE-G, 13-hydroxy-octodecadienoyl-glycerol] | 10 µM (33.58 ± 21.3) % | > 10 | > 10 | – | > 50 | < 10 | 10 µM (18.90 ± 6.1) % | > 10 | > 10 | ~ 60 times | Stimulation of PPAR-α transcriptional activity (PPAR-α): did not stimulate; Level in human epidermis samples [11]: 21.9 ± 6.2 fmol/mg tissue; Stimulation of PPAR-γ transcriptional activity (PPAR-γ): did not stimulate
CCCCC/C=C\C/C=C\CCCCCCCC(=O)O [LA, Linoleic acid] | – | – | – | 15 | – | – | – | – | – | – | Time of peak 13-HODE biosynthesis (human neutrophils [4]; 3 µM LA): 10 s; Time to biosynthesis of 13-HODE derivatives (human neutrophils [4]; 3 µM substrate): 10 to 30 s
CCCCC/C=C\C/C=C\CCCCCCCC(=O)NCCO [LEA, N-linoleoyl-ethanolamine] | – | – | – | 15 | – | – | – | – | – | – | Delay before metabolism into 15-lipoxygenase counterpart (human eosinophils [3]): ~ 1 min; Ratio 13-HODE/13-HODE-EA (human neutrophils [4]): 2.67 ± 0.590; Time to biosynthesis of 13-HODE derivatives (human neutrophils [4]): 10 to 30 s
CC(Cc1ccc(O)c(O)c1)C(C)Cc1ccc(O)c(O)c1 (stereo not shown) [NDGA] | – | – | – | – | – | – | – | – | – | – | Inhibition of biosynthesis of the investigated 15-LO metabolites (human neutrophils [12]): did not inhibit
